Measured values: PMC6867895 (mBio, 2019)
Values after ≈ are worked out from the molar mass of the structure shown. Where two headings read alike, the source gives them in different places.

Legend:
VIM-2 [1] = biological target: T1, VIM-2 (Pseudomonas aeruginosa, UniProt Q9K2N0); settings: read-out: Parameter by metallo-β-lactamase / VIM-2 / KM; 50 mM HEPES pH 7.0, 10 μM added ZnSO4, 25°C
T1 construct: gene blaVIM-2

[2] = test system: E. coli DH10B pBCSK- blaVIM-2; experiment: microbe, parasite or virus in culture; settings: Escherichia coli, read-out: MIC
E. coli DH10B pBCSK- = experiment: microbe, parasite or virus in culture; settings: Escherichia coli, DH10BPBCSK, read-out: MIC
VIM-2 [3] = biological target: T1, VIM-2; settings: read-out: Parameter by metallo-β-lactamase / VIM-2 / KM; 50 mM HEPES pH 7.0, 10 μM added ZnSO4, 25°C; remark: listed apart in the source
VIM-2 [4] = biological target: T1, VIM-2; settings: read-out: Parameter by metallo-β-lactamase / VIM-2 / KM; 50 mM HEPES pH 7.0, 10 μM added ZnSO4, 25°C; remark: listed apart in the source
VIM-2 [5] = biological target: T1, VIM-2; experiment: initial-rate hydrolysis, absorbance […] nm (product formation); assay type: biochemical; settings: read-out: Parameter by metallo-β-lactamase / VIM-2 / KM; 50 mM HEPES pH 7.0, 10 μM added ZnSO4, 25°C

Molecule: CC1(C)S[C@@H]2[C@H](NC(=O)[C@H](N)c3ccccc3)C(=O)N2[C@H]1C(=O)O [Ampicillin]
- Km (VIM-2 [1]): 84 ± 7 µM
- MIC [2]: 1020 µg/mL (≈ 2930 µM)
- MIC (E. coli DH10B pBCSK-): 4 µg/mL (≈ 11.4 µM)

Molecule: CC(C)(O/N=C(\C(=O)N[C@@H]1C(=O)N2C(C(=O)[O-])=C(C[n+]3ccccc3)CS[C@H]12)c1csc(N)n1)C(=O)O [Ceftazidime]
- MIC [2]: 32 µg/mL (≈ 58.5 µM)
- MIC (E. coli DH10B pBCSK-): 0.5 µg/mL (≈ 0.915 µM)
- Km (VIM-2 [3]): 90 ± 11 µM

Molecule: CC(=O)OCC1=C(C(=O)O)N2C(=O)[C@@H](NC(=O)Cc3cccs3)[C@H]2SC1 [Cephalothin]
- MIC [2]: 256 µg/mL (≈ 646 µM)
- MIC (E. coli DH10B pBCSK-): 4 µg/mL (≈ 10.1 µM)

Molecule: C[C@@H](O)[C@H]1C(=O)N2C(C(=O)O)=C(S[C@@H]3CN[C@H](C(=O)Nc4cccc(C(=O)O)c4)C3)[C@H](C)[C@H]12 [Ertapenem]
- MIC [2]: 0.25 µg/mL (≈ 0.526 µM)
- MIC (E. coli DH10B pBCSK-): 0.0075 µg/mL (≈ 0.0158 µM)

Molecule: C[C@@H](O)[C@H]1C(=O)N2C(C(=O)O)=C(SCCNC=N)C[C@H]12 [Imipenem]
- MIC [2]: 4 µg/mL (≈ 13.4 µM)
- MIC (E. coli DH10B pBCSK-): 0.5 µg/mL (≈ 1.67 µM)

Molecule: C[C@@H](O)[C@H]1C(=O)N2C(C(=O)O)=C(S[C@@H]3CN[C@H](C(=O)N(C)C)C3)[C@H](C)[C@H]12 [Meropenem]
- MIC [2]: 0.5 µg/mL (≈ 1.3 µM)
- MIC (E. coli DH10B pBCSK-): 0.03 µg/mL (≈ 0.0782 µM)
- Km (VIM-2 [4]): 5 ± 0.8 µM

Molecule: Chromacef
- Km (VIM-2 [5]): 11 ± 2 µM
